This note sets out measurements from patent US20250281451A1, “COMPOSITIONS AND METHODS FOR MODULATING SLEEP AND USES THEREOF” (Brightseed, Inc., priority 2022, published 2025).

The target in series [1] is T1, Orx2 (Homo sapiens, UniProt O43614).
T1 construct: DiscoverX
T1 sequence (O43614 1-444): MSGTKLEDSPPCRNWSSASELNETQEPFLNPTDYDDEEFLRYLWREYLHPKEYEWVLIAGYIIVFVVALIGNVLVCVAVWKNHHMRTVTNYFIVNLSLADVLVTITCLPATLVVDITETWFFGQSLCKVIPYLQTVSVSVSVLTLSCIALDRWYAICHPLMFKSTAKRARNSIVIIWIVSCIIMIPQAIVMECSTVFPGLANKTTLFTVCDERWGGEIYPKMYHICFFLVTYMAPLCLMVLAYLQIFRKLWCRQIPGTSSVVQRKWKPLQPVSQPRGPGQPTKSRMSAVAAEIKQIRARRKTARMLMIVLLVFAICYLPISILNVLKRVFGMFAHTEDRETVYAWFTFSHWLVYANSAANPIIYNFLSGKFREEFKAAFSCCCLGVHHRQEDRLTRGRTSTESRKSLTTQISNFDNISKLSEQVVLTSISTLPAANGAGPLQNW
Briefly: Orx2 antagonist screening, chemiluminescent cell assay with Orexin B EC80. The note with it: for % Agonism Orx2 at Relative IC50: absolute percent agonism at the μM concentration of the relative OR2 IC50; for IC50: antagonist mode against Orexin B EC80, read-out: Relative IC50 of Orx2; for IC50 Dilution of Orx2 (fold dilution): concentration of the fraction of the plant source, in fold dilution, needed to achieve IC50 of OR2. In kind it is cell-based. The method, then:
For this example, the following protocol was used: 1.) seed cells in 20 μL Cell Plating Reagent; 2.) incubate cells overnight at 37° C. and 5% CO2; 3.) treat cells with 2.5 μL 10× antagonist prepared in Compound Dilution Buffer (For OR2 screening, 2.5 μL of 1:100 natural product sample in DiscoverX cell plating reagent. Control antagonist, Seltorexant, 10× stock was prepared at 1500 nM); 4.) incubate for 30 minutes at 37° C. and 5% CO2; 5.) treat cells with 2.5 μL 10× agonist prepared in Compound Dilution Buffer (For OR2 screening, 2.5 μL of 10× Orexin B EC80, 252.7 nM); 6.) incubate for 90 minutes at 37° C. and 5% CO2; 7.) add 12.5 μL Working Detection Solution; 8.) incubate for 1 hour at room temperature in the dark; and 9.) read chemiluminescent signal.
(§1) The plants described herein were tested to determine the concentration, in μM, to achieve the relative IC50 of OR2 receptor, the absolute percent agonism achieved at the μM concentration of the relative OR2 IC50, the percentage receptor activity at the concentration, in μM, needed to achieve IC50 in OR2, the percentage cell viability, measured by XTT assay, at the IC50 μM concentration, the concentration of the fraction, in fold dilution, needed to achieve IC50 of OR2, and the percentage receptor activity at the concentration of the fraction, in fold dilution, needed to achieve IC50 of OR2.

Series [2] relates to cells. Nature of the series: cell viability, XTT assay. The class given is cell-based. Particulars: at the IC50 μM concentration of the compound. As to the method:
as §1
(In general: Formazan colour is commonly taken as a measure of viable cells.)

The target in series [3] is T2, Orx1 (Homo sapiens, UniProt O43613).
T2 sequence (O43613 1-425): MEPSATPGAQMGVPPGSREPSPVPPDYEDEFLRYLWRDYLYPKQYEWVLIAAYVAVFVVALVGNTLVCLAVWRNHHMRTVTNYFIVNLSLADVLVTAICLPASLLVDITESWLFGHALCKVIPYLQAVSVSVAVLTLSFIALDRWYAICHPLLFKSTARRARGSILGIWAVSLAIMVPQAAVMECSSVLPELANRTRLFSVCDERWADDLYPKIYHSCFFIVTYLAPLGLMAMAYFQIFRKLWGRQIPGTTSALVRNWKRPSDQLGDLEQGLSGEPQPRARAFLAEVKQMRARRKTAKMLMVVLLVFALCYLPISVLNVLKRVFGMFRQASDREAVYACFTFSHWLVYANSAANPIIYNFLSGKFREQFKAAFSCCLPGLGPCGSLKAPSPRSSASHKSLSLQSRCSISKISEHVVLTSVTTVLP
Briefly: % agonism on Orx1 at the OR2 IC50 concentration. The note with it: at the μM concentration needed to achieve IC50 in OR2. In kind it is cell-based. The method, then: For this example, the following protocol was used: 1.) seed cells in 20 μL Cell Plating Reagent; 2.) incubate cells overnight at 37° C. and 5% CO2; 3.) treat cells with 2.5 μL 10× antagonist prepared in Compound Dilution Buffer (For OR2 screening, 2.5 μL of 1:100 natural product sample in DiscoverX cell plating reagent.
as §1

Series [4] concerns male Sprague-Dawley rat. Nature of the series: in vivo tolerability, dose escalation, adverse effect observation. Particulars: for 15 min effects (adverse effects) / 30 min effects (adverse effects) / 60 min effects (adverse effects): n=3 rats, (x/3) animals affected. As to the method: In this example, the in vivo tolerability of Compounds 26, 21, 29, and 13 was assessed.
Naïve rats (male Sprague-Dawley rat) were acclimatized to the procedure room in their home cages up to 7 days following arrival to the test facility, with food and water available ad libitum. On the day of experiment, animals were acclimatized to the experimental room for at least one hour prior to the beginning of any experiment. All animals were tail marked, weighed and randomly assigned to treatment groups. The animals (n=3 per dose) were treated with either Compounds 26, 21, 29, and 13 (10 mL/kg, p.o.). For each compound a maximum of 4 doses were tested using a dose escalation procedure starting from 30 mg/kg. If this initial dose is well-tolerated, the dosage is increased to 100 mg/kg. If the 30 mg/kg dose is not tolerated, the dose is reduced to 15 mg/kg. Following the dose escalation procedure, if the 100 mg/kg dose is well-tolerated, the dose is escalated to 315 mg/kg. If it is not tolerated, the dose is decreased to 60 mg/kg. The pattern continues with the next decision point: if 315 mg/kg is well-tolerated, the dose is increased to the maximum of 500 mg/kg. If 315 mg/kg is not tolerated, the dose is decreased to 200 mg/kg.
The compounds would be considered not tolerated if three or more adverse effects (or any severe adverse effect) occurred at specific dose during the entire period of 60 mins. […] Mild—slight decrease in activity, responsive when provoked. Moderate—decrease in activity, less responsive when provoked.

The IC50 is the concentration that inhibits the measured activity by half.

Entries after “also recorded” stand apart in the source; their conditions may differ.

Turning to `O=C(O)[C@H]1O[C@@H](Oc2c(-c3ccc(O)cc3)oc3cc(O)cc(O)c3c2=O)[C@H](O)[C@@H](O)[C@@H]1O` [Compound 20, (2S,3S,4S,5R,6S)-6-[5,7-dihydroxy-2-(4-hydroxyphenyl)-4-oxochromen-3-yl]oxy-3,4,5-trihydroxyoxane-2-carboxylic acid], in series [1], the “% Agonism Orx2 at Relative IC50” value stood at 45% and the IC50 stood at 146 µM. For the same molecule, the “% Cell viability at IC50” value in series [2] is given as 83.58%.
Turning to `COc1c(O)cc2oc(-c3ccc(O[C@@H]4O[C@H](C(=O)O)[C@@H](O)[C@H](O)[C@H]4O)c(O)c3)c(OC)c(=O)c2c1O` [Compound 28, (2S,3S,4S,5R,6S)-6-[4-(5,7-dihydroxy-3,6-dimethoxy-4-oxochromen-2-yl)-2-hydroxyphenoxy]-3,4,5-trihydroxyoxane-2-carboxylic acid], in series [3], the “% Agonism on Orx1 at OR2 IC50” value is reported as 75.74%. Moreover, in series [1], the “% Agonism Orx2 at Relative IC50” value is on record as 50% and the half-maximal inhibitory concentration (IC50) worked out at 154 µM. Further, the “% Cell viability at IC50” value in series [2] was found to be 107.58%.
In the case of `O=c1c(O)c(-c2ccc(O)c(O)c2)oc2cc(O)cc(O)c12` [Compound 29, 2-(3,4-dihydroxyphenyl)-3,5,7-trihydroxychromen-4-one], the “15 min effects (adverse effects)” value in series [4] (30 mg/kg p.o.) is on record as “No adverse effects”; in series [4] (100 mg/kg p.o.), “Reduced activity”; in series [4] (315 mg/kg p.o.), “Reduced activity”; in series [4] (500 mg/kg p.o.), “Pica (1/3)”. Also, the “30 min effects (adverse effects)” value is given as “No adverse effects” in series [4] (30 mg/kg p.o.), “No adverse effects” in series [4] (100 mg/kg p.o.), “Reduced activity; also recorded: Pica (2/3)” in series [4] (315 mg/kg p.o.) and “Pica (2/3)” in series [4] (500 mg/kg p.o.). Further, the “60 min effects (adverse effects)” value in series [4] (30 mg/kg p.o.) is listed as “No adverse effects”; in series [4] (100 mg/kg p.o.), “No adverse effects”; in series [4] (315 mg/kg p.o.), “Reduced activity (3/3)”; in series [4] (500 mg/kg p.o.) it was “No adverse effects”. Further, the tolerability result in series [4] (all four doses (30, 100, 315 and 500 mg/kg) p.o., 60 min observation) is given as “well-tolerated”.
Take `COc1ccc(C(=O)CCc2ccc(O)cc2)c(O)c1` [Compound 16, 1-(2-hydroxy-4-methoxyphenyl)-3-(4-hydroxyphenyl)propan-1-one]: the “% Agonism on Orx1 at OR2 IC50” value in series [3] turned out to be 77.95%. In series [1], the “% Agonism Orx2 at Relative IC50” value is recorded as 75%, the IC50 turned out to be 381 µM and the “IC50 Dilution of Orx2 (fold dilution)” value was 5786.9 fold dilution. Besides, in series [2], the “% Cell viability at IC50” value is on record as 85.11%.
For the molecule `O=C(CCc1ccc(O)cc1)c1ccc(O)cc1OC1OC(CO)C(O)C(O)C1O` (stereo not shown) [Compound 17, 3-(4-hydroxyphenyl)-1-[4-hydroxy-2-[3,4,5-trihydroxy-6-(hydroxymethyl)oxan-2-yl]oxyphenyl]propan-1-one], the “% Agonism on Orx1 at OR2 IC50” value in series [3] was 100.52%. Moreover, in series [1], the “% Agonism Orx2 at Relative IC50” value was 80%, the IC50 was 188 µM and the “IC50 Dilution of Orx2 (fold dilution)” value was 5786.9 fold dilution. In addition, the “% Cell viability at IC50” value in series [2] was 89.87%.
On the same counts, the results for `O=C(CCc1ccc(O)cc1)c1ccc(OC2OC(CO)C(O)C(O)C2O)cc1O` (stereo not shown) [Compound 19, 3-(4-hydroxyphenyl)-1-[2-hydroxy-4-[3,4,5-trihydroxy-6-(hydroxymethyl)oxan-2-yl]oxyphenyl]propan-1-one] are 68.74%, 80%, 319 µM, 5786.9 fold dilution and 86.12%.
`C[C@@H]1O[C@@H](OC[C@H]2O[C@@H](Oc3c(-c4ccc(O)c(O)c4)oc4cc(O)cc(O)c4c3=O)[C@H](O)[C@@H](O)[C@@H]2O)[C@H](O)[C@H](O)[C@H]1O` [Compound 15, 2-(3,4-dihydroxyphenyl)-5,7-dihydroxy-3-[(2S,3R,4S,5S,6R)-3,4,5-trihydroxy-6-[[(2R,3R,4R,5R,6S)-3,4,5-trihydroxy-6-methyloxan-2-yl]oxymethyl]oxan-2-yl]oxychromen-4-one]: in series [3], the “% Agonism on Orx1 at OR2 IC50” value worked out at 67.71%. In series [1], the “% Agonism Orx2 at Relative IC50” value was 65%, the IC50 was found to be 79.1 µM and the “IC50 Dilution of Orx2 (fold dilution)” value was determined as 2283.9 fold dilution. Also, the “% Cell viability at IC50” value in series [2] was 103.46%.
As to `COc1c(O)cc2oc(-c3ccc(O)cc3)c(OC)c(=O)c2c1O` [Compound 14, 5,7-dihydroxy-2-(4-hydroxyphenyl)-3,6-dimethoxychromen-4-one], the “% Agonism on Orx1 at OR2 IC50” value in series [3] was 62.98%. Also, in series [1], the “% Agonism Orx2 at Relative IC50” value was 50%, the IC50 turned out to be 89 µM and the “IC50 Dilution of Orx2 (fold dilution)” value turned out to be 3466.5 fold dilution. In addition, in series [2], the “% Cell viability at IC50” value is 94.58%.
For `Cc1cc(O)c2c(c1)C(=O)c1cc(O)cc(O[C@@H]3O[C@H](CO)[C@@H](O)[C@H](O)[C@H]3O)c1C2=O` [Compound 30, 1,6-dihydroxy-3-methyl-8-[(2S,3R,4S,5S,6R)-3,4,5-trihydroxy-6-(hydroxymethyl)oxan-2-yl]oxyanthracene-9,10-dione], in series [3], the “% Agonism on Orx1 at OR2 IC50” value was 26.23%. In series [1], the “% Agonism Orx2 at Relative IC50” value was 50% and the IC50 was 81.3 µM. For the same molecule, the “% Cell viability at IC50” value in series [2] was found to be 100%.
